In publication PMC12503911, “Cytotoxicity of Atropisomeric [1,1′‐Binaphthalene]‐2,2′‐Diamines (BINAM) and Analogs in Human Cancer Cells: Enantioselectivity, Structure–Activity Relationships, and Mechanism” (Chemmedchem, 2025) one finds remaining activity data, which are given here for 2 compounds.

Each structure is given as a SMILES string. Read-outs that look alike come from different tables or passages of the source.

Common to all, as to test: biochemical
Holding throughout (design): 33PanQinase radiometric kinase activity assay, residual activity in % of control, contract lab Reaction Biology
Common to all, as to details: mean of intraexperimental duplicates, n = 1

One test concerns the target T1, NEK9 (Homo sapiens, UniProt Q8TD19).
T1 sequence (Q8TD19 1-979): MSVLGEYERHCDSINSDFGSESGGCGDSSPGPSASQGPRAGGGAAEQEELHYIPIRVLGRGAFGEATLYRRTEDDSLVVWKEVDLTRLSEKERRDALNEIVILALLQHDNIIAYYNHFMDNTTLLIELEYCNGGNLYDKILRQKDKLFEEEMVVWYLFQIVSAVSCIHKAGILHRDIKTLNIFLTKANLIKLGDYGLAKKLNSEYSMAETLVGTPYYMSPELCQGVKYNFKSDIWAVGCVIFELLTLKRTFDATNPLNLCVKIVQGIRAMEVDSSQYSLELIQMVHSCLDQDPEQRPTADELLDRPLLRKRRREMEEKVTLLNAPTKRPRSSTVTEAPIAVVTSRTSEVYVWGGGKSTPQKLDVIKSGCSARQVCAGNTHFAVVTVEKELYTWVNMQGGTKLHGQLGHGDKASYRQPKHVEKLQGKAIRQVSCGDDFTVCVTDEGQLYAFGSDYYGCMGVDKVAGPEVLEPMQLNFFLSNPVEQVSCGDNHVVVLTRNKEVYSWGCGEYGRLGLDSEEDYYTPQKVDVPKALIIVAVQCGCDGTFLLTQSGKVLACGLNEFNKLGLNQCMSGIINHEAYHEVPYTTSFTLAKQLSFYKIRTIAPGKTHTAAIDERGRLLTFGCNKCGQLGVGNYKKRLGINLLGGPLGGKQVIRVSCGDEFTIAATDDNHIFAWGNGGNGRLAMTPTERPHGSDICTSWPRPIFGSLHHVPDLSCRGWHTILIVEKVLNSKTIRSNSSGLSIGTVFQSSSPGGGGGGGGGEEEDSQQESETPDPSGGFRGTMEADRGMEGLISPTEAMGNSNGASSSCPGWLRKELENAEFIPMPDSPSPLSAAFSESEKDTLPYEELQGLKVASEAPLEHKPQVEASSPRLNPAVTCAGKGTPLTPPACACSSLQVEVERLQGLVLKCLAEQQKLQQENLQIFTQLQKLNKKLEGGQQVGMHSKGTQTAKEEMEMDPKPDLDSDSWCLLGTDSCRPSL
The protocol:
(§1) Kinase Screening was performed at Reaction Biology (Freiburg, Germany) by using the ^33PanQinase Assay.^[ [90] ^] Based on this knowledge, we commissioned a kinase screening by the firm Reaction Biology, targeting those kinases whose inhibition has shown an indirect effect on microtubules. In our selection, we included additional kinases that are known to be involved in centrosome amplification (PLK4^[ [82] ^]), centrosome clustering (CDK1/2,^[ [83] ^] PLK1^[ [84] ^]), spindle multipolarity (SRC^[ [85] ^]), microtubule dynamics (AKT1^[ [86] ^]), and LIMK1/2 activation (ROCK1^[ [87] ^]) or are crucial for the mitosis (BUB1B, NEK2/9, WEE1^[ [88] ^]). Nonetheless, 1(R) and 1(S) at 10 µM had almost no inhibitory effects on any of the chosen kinases (Table 4 ). Only Aurora A (mean residual activity for 1(R): 86%, 1(S): 98%) and ASK1 (mean residual activity for 1(R): 90%, 1(S): 117%) were slightly enantioselectively impacted. However, we theorize that those marginal inhibitions are not explanatory for the antiproliferative and morphological effects of 1(R) on cancer cells.

In the next test the target is T2, CHK1 (Homo sapiens, UniProt O14757).
T2 construct: gene CHEK1
T2 sequence (O14757 1-476): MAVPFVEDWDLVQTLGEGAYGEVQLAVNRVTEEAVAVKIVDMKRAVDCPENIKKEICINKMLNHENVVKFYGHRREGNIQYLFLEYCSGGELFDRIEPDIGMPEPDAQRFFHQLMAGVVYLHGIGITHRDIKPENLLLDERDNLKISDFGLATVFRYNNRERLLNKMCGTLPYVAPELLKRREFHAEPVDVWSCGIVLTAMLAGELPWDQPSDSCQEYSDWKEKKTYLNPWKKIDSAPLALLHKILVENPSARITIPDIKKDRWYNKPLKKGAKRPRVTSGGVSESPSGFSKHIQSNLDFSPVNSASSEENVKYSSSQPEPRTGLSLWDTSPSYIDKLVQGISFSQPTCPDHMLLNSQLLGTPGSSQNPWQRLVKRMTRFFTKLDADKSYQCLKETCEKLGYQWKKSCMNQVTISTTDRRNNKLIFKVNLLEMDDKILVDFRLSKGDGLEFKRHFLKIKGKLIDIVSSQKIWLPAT
The protocol:
as §1

The target of a further test is PLK1 (Homo sapiens, UniProt P53350). As for the experimental part:
as §1

[1] abbreviates: read-out: Residual activities [% of control] / 1(S) 10 µM.
The mark [2] stands for this setting: read-out: Residual activities [% of control] / 1(R) 10 µM.

Chain of PLK1 (P53350 whole entry): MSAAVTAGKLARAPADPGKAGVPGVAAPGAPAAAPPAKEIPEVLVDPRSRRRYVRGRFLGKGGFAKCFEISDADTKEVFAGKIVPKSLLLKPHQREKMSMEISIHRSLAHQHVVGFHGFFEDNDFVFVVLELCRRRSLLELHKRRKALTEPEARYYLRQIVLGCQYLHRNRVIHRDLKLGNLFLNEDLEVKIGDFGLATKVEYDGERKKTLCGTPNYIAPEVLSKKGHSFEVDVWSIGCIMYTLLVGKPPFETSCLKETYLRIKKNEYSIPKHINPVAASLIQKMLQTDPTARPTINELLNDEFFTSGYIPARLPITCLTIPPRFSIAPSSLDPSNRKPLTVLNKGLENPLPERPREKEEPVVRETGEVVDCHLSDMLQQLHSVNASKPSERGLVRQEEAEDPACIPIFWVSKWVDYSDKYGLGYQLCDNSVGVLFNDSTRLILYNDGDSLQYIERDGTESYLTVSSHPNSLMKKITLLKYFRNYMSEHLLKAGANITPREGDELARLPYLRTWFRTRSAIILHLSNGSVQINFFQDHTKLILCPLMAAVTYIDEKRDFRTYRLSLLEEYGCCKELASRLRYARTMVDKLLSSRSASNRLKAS

As for `Nc1ccc2ccccc2c1-c1c(N)ccc2ccccc12` [1(S), S‐BINAM], the values for the remaining activity at 10 µM at NEK9 (setting [1]), at CHK1 (setting [1]) and at PLK1 (setting [1]) were 96%, 95% and 91%, respectively.

With `Nc1ccc2ccccc2c1-c1c(N)ccc2ccccc12` [1(R), (R)‐[1,1′‐binaphthalene]‐2,2′‐diamine], the results for the remaining activity at 10 µM on NEK9 (setting [2]), at CHK1 (setting [2]) and on PLK1 (setting [2]) were 94%, 94% and 95%, respectively.
